Tests used:
[1] = target: Estrogen receptor beta (Homo sapiens, UniProt Q92731); experiment: Binding affinity for human estrogen receptor beta
[2] = target: T1, Mineralocorticoid receptor (Rattus norvegicus, UniProt P22199); experiment: Binding affinity for rat mineralocorticoid receptor
T1 sequence (P22199 whole entry): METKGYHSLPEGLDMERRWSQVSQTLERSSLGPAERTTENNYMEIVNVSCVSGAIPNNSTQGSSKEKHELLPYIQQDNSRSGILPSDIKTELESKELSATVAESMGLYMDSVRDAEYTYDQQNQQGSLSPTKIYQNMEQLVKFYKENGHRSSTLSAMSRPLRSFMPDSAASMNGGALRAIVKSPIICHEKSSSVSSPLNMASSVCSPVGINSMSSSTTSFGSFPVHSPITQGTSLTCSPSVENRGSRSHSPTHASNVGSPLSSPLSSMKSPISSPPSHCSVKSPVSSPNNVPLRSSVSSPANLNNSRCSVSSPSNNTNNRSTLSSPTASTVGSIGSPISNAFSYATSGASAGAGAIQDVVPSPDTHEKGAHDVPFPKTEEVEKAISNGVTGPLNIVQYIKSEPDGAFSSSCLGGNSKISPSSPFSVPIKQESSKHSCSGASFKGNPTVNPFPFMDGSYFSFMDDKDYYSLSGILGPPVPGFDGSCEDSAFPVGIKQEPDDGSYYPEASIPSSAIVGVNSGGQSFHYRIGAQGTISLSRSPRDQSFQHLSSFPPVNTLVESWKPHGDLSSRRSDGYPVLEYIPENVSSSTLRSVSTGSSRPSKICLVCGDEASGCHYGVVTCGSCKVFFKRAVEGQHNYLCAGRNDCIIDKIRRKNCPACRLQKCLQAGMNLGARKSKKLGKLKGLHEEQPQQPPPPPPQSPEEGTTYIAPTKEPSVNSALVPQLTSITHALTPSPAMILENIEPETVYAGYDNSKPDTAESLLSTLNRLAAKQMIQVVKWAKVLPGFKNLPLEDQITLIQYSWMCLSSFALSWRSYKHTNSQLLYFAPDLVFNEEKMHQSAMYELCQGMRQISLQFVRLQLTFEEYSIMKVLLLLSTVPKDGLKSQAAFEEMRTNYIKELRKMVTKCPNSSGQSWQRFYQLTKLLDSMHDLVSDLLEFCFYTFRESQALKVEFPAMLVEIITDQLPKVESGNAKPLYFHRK

[3] = target: T2, Glucocorticoid receptor (Homo sapiens, UniProt P04150); experiment: Binding affinity for human glucocorticoid receptor
T2 sequence (P04150 whole entry): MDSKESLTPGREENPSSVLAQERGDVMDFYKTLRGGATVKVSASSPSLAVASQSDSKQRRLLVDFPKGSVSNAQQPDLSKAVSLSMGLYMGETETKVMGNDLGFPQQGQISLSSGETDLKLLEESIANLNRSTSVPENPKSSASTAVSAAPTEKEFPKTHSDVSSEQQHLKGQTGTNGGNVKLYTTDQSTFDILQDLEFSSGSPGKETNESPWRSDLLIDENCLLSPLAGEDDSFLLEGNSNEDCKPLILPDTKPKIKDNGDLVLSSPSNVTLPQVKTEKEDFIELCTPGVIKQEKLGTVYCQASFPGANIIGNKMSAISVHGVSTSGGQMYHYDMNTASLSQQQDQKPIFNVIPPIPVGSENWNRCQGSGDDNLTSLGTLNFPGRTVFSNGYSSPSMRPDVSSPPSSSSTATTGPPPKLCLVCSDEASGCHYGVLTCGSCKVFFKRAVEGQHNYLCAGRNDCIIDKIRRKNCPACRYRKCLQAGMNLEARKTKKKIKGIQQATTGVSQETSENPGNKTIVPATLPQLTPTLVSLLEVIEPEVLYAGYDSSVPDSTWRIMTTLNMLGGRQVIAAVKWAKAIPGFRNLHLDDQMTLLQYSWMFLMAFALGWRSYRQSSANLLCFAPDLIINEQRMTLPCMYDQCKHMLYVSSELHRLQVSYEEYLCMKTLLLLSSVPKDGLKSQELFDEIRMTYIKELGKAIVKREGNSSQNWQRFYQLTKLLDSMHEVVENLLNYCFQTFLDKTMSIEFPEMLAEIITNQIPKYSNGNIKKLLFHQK

[4] = target: T2, Glucocorticoid receptor; experiment: Inhibition of human glucocorticoid receptor alpha isoform
[5] = target: T3, Estrogen receptor (Homo sapiens, UniProt P03372); experiment: Binding affinity for human estrogen receptor alpha
T3 sequence (P03372 whole entry): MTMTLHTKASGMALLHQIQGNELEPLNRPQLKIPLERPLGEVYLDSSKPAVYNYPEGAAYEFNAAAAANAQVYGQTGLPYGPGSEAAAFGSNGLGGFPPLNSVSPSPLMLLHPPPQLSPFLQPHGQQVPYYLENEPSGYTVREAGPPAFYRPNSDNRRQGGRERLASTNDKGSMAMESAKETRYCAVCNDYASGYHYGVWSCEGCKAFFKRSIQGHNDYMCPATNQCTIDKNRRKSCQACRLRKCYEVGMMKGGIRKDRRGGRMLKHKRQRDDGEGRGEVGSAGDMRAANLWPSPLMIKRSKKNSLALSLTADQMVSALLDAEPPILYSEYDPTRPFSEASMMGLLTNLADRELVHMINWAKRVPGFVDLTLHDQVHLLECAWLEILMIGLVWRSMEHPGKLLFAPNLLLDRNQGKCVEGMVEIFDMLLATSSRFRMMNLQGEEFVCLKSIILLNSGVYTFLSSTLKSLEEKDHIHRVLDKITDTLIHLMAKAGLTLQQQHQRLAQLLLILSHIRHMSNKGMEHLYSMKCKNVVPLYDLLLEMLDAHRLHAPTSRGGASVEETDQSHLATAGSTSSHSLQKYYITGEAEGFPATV

[6] = target: T4, Progesterone receptor (Homo sapiens, UniProt P06401); experiment: Binding affinity for human progesterone receptor
T4 sequence (P06401 whole entry): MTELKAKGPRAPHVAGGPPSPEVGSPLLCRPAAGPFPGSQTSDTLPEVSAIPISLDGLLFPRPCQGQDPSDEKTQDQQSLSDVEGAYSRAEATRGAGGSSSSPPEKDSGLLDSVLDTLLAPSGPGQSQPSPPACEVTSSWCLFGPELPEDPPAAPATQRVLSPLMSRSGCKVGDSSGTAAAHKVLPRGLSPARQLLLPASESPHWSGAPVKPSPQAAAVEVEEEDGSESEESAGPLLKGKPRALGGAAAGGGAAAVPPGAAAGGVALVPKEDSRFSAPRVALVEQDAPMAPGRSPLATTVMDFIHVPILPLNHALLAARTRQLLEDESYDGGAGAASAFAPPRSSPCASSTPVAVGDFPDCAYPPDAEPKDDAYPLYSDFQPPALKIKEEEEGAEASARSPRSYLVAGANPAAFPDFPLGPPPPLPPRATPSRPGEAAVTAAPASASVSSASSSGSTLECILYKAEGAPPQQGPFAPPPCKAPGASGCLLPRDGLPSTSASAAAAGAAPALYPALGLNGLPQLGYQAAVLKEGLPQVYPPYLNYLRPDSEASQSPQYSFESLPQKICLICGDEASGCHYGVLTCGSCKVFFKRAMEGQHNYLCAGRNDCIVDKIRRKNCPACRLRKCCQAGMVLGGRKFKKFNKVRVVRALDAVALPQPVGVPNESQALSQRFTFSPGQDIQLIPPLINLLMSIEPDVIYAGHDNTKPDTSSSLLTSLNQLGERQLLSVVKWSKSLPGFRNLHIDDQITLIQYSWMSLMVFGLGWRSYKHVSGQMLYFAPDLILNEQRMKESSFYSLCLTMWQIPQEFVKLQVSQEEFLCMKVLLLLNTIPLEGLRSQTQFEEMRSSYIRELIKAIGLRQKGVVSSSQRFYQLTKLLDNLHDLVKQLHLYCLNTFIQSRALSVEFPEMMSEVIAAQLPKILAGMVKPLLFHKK

[7] = test system: A549; experiment: Effective concentration for inhibition of interleukin-6 in human A549 lung carcinoma cell line using […]% radiolabeled Dexamethasone; assay type: functional, cell-based
[8] = species: Mus musculus; experiment: Effective concentration required for inhibition of interleukin-6 in mouse thioglycolate-elicited peritoneal exudate cell line using 79% radiolabeled Dexamethasone; assay type: functional
[9] = test system: A549; experiment: Effective concentration for inhibition of interleukin-6 in human A549 lung carcinoma cell line using 67% radiolabeled Dexamethasone; assay type: functional, cell-based
[10] = test system: A549; experiment: Effective concentration required for inhibition of interleukin-6 in human A549 lung carcinoma cell line using […]% radiolabeled Dexamethasone; assay type: functional, cell-based
[11] = test system: A549; experiment: Effective concentration for inhibition of interleukin-6 in human A549 lung carcinoma cell line using 65% radiolabeled Dexamethasone; assay type: functional, cell-based
[12] = species: Mus musculus; experiment: Effective concentration required for inhibition of interleukin-6 in mouse thioglycolate-elicited peritoneal exudate cell line using 81% radiolabeled Dexamethasone; assay type: functional

Sequence of Estrogen receptor beta (Q92731 whole entry): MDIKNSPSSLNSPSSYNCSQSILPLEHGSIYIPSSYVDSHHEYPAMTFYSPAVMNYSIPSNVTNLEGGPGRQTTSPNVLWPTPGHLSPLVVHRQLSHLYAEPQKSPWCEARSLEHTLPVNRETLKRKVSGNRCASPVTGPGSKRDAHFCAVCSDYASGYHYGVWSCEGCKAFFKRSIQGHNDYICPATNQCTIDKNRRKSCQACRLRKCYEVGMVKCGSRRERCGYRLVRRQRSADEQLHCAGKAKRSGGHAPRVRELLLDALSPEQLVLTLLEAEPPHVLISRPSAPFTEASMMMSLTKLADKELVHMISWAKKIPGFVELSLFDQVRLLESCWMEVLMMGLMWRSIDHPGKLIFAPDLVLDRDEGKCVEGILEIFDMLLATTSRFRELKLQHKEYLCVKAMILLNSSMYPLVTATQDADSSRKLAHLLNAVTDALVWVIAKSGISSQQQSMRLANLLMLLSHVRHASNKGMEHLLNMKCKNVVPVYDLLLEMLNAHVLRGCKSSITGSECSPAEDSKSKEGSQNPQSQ

With C[C@]12Cc3cnn(-c4ccc(F)cc4)c3C=C1CCCC21OCCO1 the IC50 [1] was > 10000 nM, the IC50 [2] was 7560 nM and the IC50 [3] was 14 nM. The IC50 [4] was 14 nM, the IC50 [5] was > 10000 nM and the IC50 [6] was > 1000 nM.
CC1(C)COC2(CCC3=Cc4c(cnn4-c4ccc(F)cc4)C[C@@]32C)OC1 was tested, and the IC50 [4] was 28 nM and the EC50 [7] was 12 nM.
For C/C=C/[C@H]1OC2(CCCC3=Cc4c(cnn4-c4ccc(F)cc4)C[C@@]32C)O[C@@H]1/C=C/C, the EC50 [8] was 37 nM, the EC50 [9] was 7.8 nM and the IC50 [4] was 2.5 nM.
In the case of C[C@]12Cc3cnn(-c4ccc(F)cc4)c3C=C1CC[C@@]21OC[C@@H](c2ccccc2)O1, the IC50 [4] is reported as 26 nM.
In the case of CCCC[C@H]1OC2(CCCC3=Cc4c(cnn4-c4ccc(F)cc4)C[C@@]32C)O[C@@H]1CCCC, the IC50 [4] is reported as 22 nM and the EC50 [10] is reported as 92 nM.
In the case of C=C[C@H]1OC2(CCCC3=Cc4c(cnn4-c4ccc(F)cc4)C[C@@]32C)O[C@@H]1C=C, the IC50 [1] is reported as > 10000 nM, the IC50 [2] is reported as 7400 nM and the IC50 [3] is reported as 1.2 nM. It also gave an IC50 [4] of 1.2 nM, an EC50 [11] of 5.3 nM and an EC50 [12] of 8.7 nM. The IC50 [5] was > 10000 nM and the IC50 [6] was > 1000 nM.
C[C@]12Cc3cnn(-c4ccc(F)cc4)c3C=C1CC[C@@]21OC[C@H](c2ccccc2)O1 showed an IC50 [4] of 65 nM.
C[C@@H]1C[C@@H](C)OC2(CCC3=Cc4c(cnn4-c4ccc(F)cc4)C[C@@]32C)O1 (stereo in doubt; form 2) showed an IC50 [4] of 8.4 nM.
Work on C=C[C@@H]1CO[C@@]2(CCC3=Cc4c(cnn4-c4ccc(F)cc4)C[C@@]32C)O1 yielded an IC50 [4] of 38 nM.
Molecule C[C@H]1OC2(CCCC3=Cc4c(cnn4-c4ccc(F)cc4)C[C@@]32C)O[C@@H]1C has an IC50 [4] of 10 nM.
